According to publication PMC9135230, “Extending the lore of curcumin as dipteran Butyrylcholine esterase (BChE) inhibitor: A holistic molecular interplay assessment” (PLoS ONE, 2022):
pIC50: −log10 of the molar value.

Assays:
[1] = system: T1, Butyrylcholine esterase (BChE); test: Ellman assay with S-butyrylthiocholine iodide in larval lysate; type: biochemical, Aedes aegypti
T1 construct: larval lysate (4th instar), native enzyme activity

[2] = system: T1, Butyrylcholine esterase (BChE); test: Ellman assay in larval lysate; Michaelis-Menten and Lineweaver-Burk kinetics; type: biochemical, Aedes aegypti

| Structure (SMILES) | pIC50 [1] | pIC50 [2] |
| --- | --- | --- |
| CCN(C)C(=O)Oc1cccc([C@H](C)N(C)C)c1 [rivastigmine] | 5.30 | – |
| COc1cc(/C=C/C(=O)CC(=O)/C=C/c2ccc(O)c(OC)c2)ccc1O [curcumin] | – | 3.70 |
